Measured values published in ChEMBL document CHEMBL1201862, “PubChem BioAssay data set” (2004).
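Values below derive from 48-hour exposures of cells grown in 96-well plates, with endpoints linearly interpolated between the two concentrations bracketing the appropriate inhibition level. GI50: concentration for 50% inhibition of growth.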 Calls of active or inactive are those of the source. Cut-off read from the data, not from the text of the source: active = GI50 up to about 1.1 µM and inactive = higher.

Key:
Assay in all cases: NCI tumour cell line growth inhibition, 48 h
[1] = tested on: M14
[2] = tested on: CCRF-CEM
[3] = tested on: MDA-MB-231
[4] = tested on: UO-31
[5] = tested on: RPMI-8226
[6] = tested on: HCT-116
[7] = tested on: UACC-257
[8] = tested on: COLO 205
[9] = tested on: MDA-MB-435
[10] = tested on: SNB-75
[11] = tested on: IGROV-1
[12] = tested on: RXF 393
[13] = tested on: NCI-H522
[14] = tested on: ACHN
[15] = tested on: NCI-H226
[16] = tested on: HCC 2998
[17] = tested on: OVCAR-5
[18] = tested on: EKVX
[19] = tested on: K562
[20] = tested on: SR
[21] = tested on: T47D
[22] = tested on: HL-60
[23] = tested on: SK-MEL-5
[24] = tested on: OVCAR-4
[25] = tested on: KM12
[26] = tested on: SK-OV-3
[27] = tested on: Malme-3M
[28] = tested on: SF-295
[29] = tested on: SNB-19
[30] = tested on: 786-0
[31] = tested on: SN12C
[32] = tested on: SK-MEL-28
[33] = tested on: MCF7
[34] = tested on: SF-268
[35] = tested on: OVCAR-8
[36] = tested on: MOLT-4
[37] = tested on: DU-145
[38] = tested on: PC-3
[39] = tested on: UACC-62
[40] = tested on: LOX IMVI
[41] = tested on: A498
[42] = tested on: TK-10
[43] = tested on: HCT-15
[44] = tested on: HOP-92
[45] = tested on: MDA-N
[46] = tested on: Hs-578T
[47] = tested on: NCI-H460
[48] = tested on: A549
[49] = tested on: NCI-H23
[50] = tested on: SK-MEL-2
[51] = tested on: CAKI-1
[52] = tested on: U-251
[53] = tested on: NCI/ADR-RES
[54] = tested on: HOP-62
[55] = tested on: HT-29
[56] = tested on: OVCAR-3
[57] = tested on: SW-620
[58] = tested on: SF-539

Question: For `C[C@H]1C[C@H]2[C@@H]3CCC4=CC(=O)C=C[C@]4(C)C3=CC[C@]2(C)[C@@]1(O)C(=O)CO`, which GI50 [1] is on record?
Answer: The GI50 was > 100 µM (inactive).

Question: And the GI50 [2]?
Answer: Its GI50 is 66.8 µM (inactive).

Question: What about the GI50 [3] of the same compound?
Answer: The GI50 was > 100 µM (inactive).

Question: What about the GI50 [4] of the same compound?
Answer: The GI50 was > 100 µM (inactive).

Question: What about the GI50 [5] of the same compound?
Answer: Its GI50 is 37.2 µM (inactive).

Question: What about the GI50 [6] of the same compound?
Answer: The GI50 was > 100 µM (inactive).

Question: What about the GI50 [7] of the same compound?
Answer: The GI50 was > 100 µM (inactive).

Question: And the GI50 [8]?
Answer: Its GI50 is > 100 µM (inactive).

Question: And the GI50 [9]?
Answer: Its GI50 is > 100 µM (inactive).

Question: What about the GI50 [10] of the same compound?
Answer: The GI50 was > 100 µM (inactive).

Question: And the GI50 [11]?
Answer: Its GI50 is > 100 µM (inactive).

Question: And the GI50 [12]?
Answer: The GI50 was > 100 µM (inactive).

Question: And the GI50 [13]?
Answer: The GI50 was 68.2 µM (inactive).

Question: And the GI50 [14]?
Answer: The GI50 was > 100 µM (inactive).

Question: What about the GI50 [15] of the same compound?
Answer: The GI50 was > 100 µM (inactive).

Question: What about the GI50 [16] of the same compound?
Answer: Its GI50 is > 100 µM (inactive).

Question: What about the GI50 [17] of the same compound?
Answer: Its GI50 is > 100 µM (inactive).

Question: And the GI50 [18]?
Answer: The GI50 was 50.6 µM (inactive).

Question: And the GI50 [19]?
Answer: Its GI50 is > 100 µM (inactive).

Question: What about the GI50 [20] of the same compound?
Answer: Its GI50 is 37.7 µM (inactive).

Question: And the GI50 [21]?
Answer: Its GI50 is 69.8 µM (inactive).

Question: What about the GI50 [22] of the same compound?
Answer: The GI50 was 42 µM (inactive).

Question: And the GI50 [23]?
Answer: The GI50 was 83.4 µM (inactive).

Question: What about the GI50 [24] of the same compound?
Answer: Its GI50 is > 100 µM (inactive).

Question: What about the GI50 [25] of the same compound?
Answer: The GI50 was > 100 µM (inactive).

Question: What about the GI50 [26] of the same compound?
Answer: Its GI50 is > 100 µM (inactive).

Question: What about the GI50 [27] of the same compound?
Answer: Its GI50 is > 100 µM (inactive).

Question: What about the GI50 [28] of the same compound?
Answer: Its GI50 is > 100 µM (inactive).

Question: And the GI50 [29]?
Answer: The GI50 was > 100 µM (inactive).

Question: What about the GI50 [30] of the same compound?
Answer: The GI50 was > 100 µM (inactive).

Question: And the GI50 [31]?
Answer: Its GI50 is > 100 µM (inactive).

Question: And the GI50 [32]?
Answer: The GI50 was > 100 µM (inactive).

Question: And the GI50 [33]?
Answer: Its GI50 is > 100 µM (inactive).

Question: And the GI50 [34]?
Answer: The GI50 was > 100 µM (inactive).

Question: And the GI50 [35]?
Answer: Its GI50 is > 100 µM (inactive).

Question: What about the GI50 [36] of the same compound?
Answer: Its GI50 is 64 µM (inactive).

Question: What about the GI50 [37] of the same compound?
Answer: The GI50 was > 100 µM (inactive).

Question: And the GI50 [38]?
Answer: Its GI50 is 99.5 µM (inactive).

Question: And the GI50 [39]?
Answer: Its GI50 is > 100 µM (inactive).

Question: What about the GI50 [40] of the same compound?
Answer: The GI50 was > 100 µM (inactive).

Question: And the GI50 [41]?
Answer: The GI50 was 23.4 µM (inactive).

Question: What about the GI50 [42] of the same compound?
Answer: The GI50 was > 100 µM (inactive).

Question: And the GI50 [43]?
Answer: Its GI50 is greater than 100 µM.

Question: And the GI50 [44]?
Answer: Its GI50 is > 100 µM (inactive).

Question: What about the GI50 [45] of the same compound?
Answer: The GI50 was > 100 µM (inactive).

Question: What about the GI50 [46] of the same compound?
Answer: The GI50 was > 100 µM (inactive).

Question: And the GI50 [47]?
Answer: Its GI50 is > 100 µM (inactive).

Question: And the GI50 [48]?
Answer: The GI50 was > 100 µM (inactive).

Question: What about the GI50 [49] of the same compound?
Answer: Its GI50 is 95.1 µM (inactive).

Question: What about the GI50 [50] of the same compound?
Answer: The GI50 was > 100 µM (inactive).

Question: What about the GI50 [51] of the same compound?
Answer: Its GI50 is > 100 µM (inactive).

Question: What about the GI50 [52] of the same compound?
Answer: Its GI50 is > 100 µM (inactive).

Question: What about the GI50 [53] of the same compound?
Answer: Its GI50 is > 100 µM (inactive).

Question: And the GI50 [54]?
Answer: Its GI50 is > 100 µM (inactive).

Question: What about the GI50 [55] of the same compound?
Answer: Its GI50 is > 100 µM (inactive).

Question: Which results are given for `COc1cc(C=O)ccc1O` [VANILLIN]?
Answer: GI50 [56]: > 100 µM (inactive); GI50 [1]: > 100 µM (inactive); GI50 [2]: > 100 µM (inactive); GI50 [3]: > 100 µM (inactive); GI50 [4]: > 100 µM (inactive); GI50 [5]: > 100 µM (inactive); GI50 [6]: > 100 µM (inactive); GI50 [7]: > 100 µM (inactive); GI50 [8]: > 100 µM (inactive); GI50 [9]: > 100 µM (inactive); GI50 [10]: > 100 µM (inactive); GI50 [11]: > 100 µM (inactive); GI50 [13]: > 100 µM (inactive); GI50 [14]: > 100 µM (inactive); GI50 [15]: > 100 µM (inactive); GI50 [57]: > 100 µM (inactive); GI50 [16]: > 100 µM (inactive); GI50 [17]: > 100 µM (inactive); GI50 [18]: > 100 µM (inactive); GI50 [19]: > 100 µM (inactive); GI50 [20]: > 100 µM (inactive); GI50 [21]: > 100 µM (inactive); GI50 [22]: > 100 µM (inactive); GI50 [23]: > 100 µM (inactive); GI50 [58]: > 100 µM (inactive); GI50 [24]: > 100 µM (inactive); GI50 [25]: > 100 µM (inactive); GI50 [27]: > 100 µM (inactive); GI50 [28]: > 100 µM (inactive); GI50 [29]: > 100 µM (inactive); GI50 [30]: > 100 µM (inactive); GI50 [31]: > 100 µM (inactive); GI50 [32]: > 100 µM (inactive); GI50 [33]: > 100 µM (inactive); GI50 [34]: > 100 µM (inactive); GI50 [35]: > 100 µM (inactive); GI50 [36]: > 100 µM (inactive); GI50 [37]: > 100 µM (inactive); GI50 [38]: > 100 µM (inactive); GI50 [40]: > 100 µM (inactive); GI50 [42]: > 100 µM (inactive); GI50 [43]: > 100 µM; GI50 [44]: > 100 µM (inactive); GI50 [45]: > 100 µM (inactive); GI50 [46]: > 100 µM (inactive); GI50 [47]: > 100 µM (inactive); GI50 [48]: > 100 µM (inactive); GI50 [49]: > 100 µM (inactive); GI50 [51]: > 100 µM (inactive); GI50 [52]: > 100 µM (inactive); GI50 [53]: > 100 µM (inactive); GI50 [54]: > 100 µM (inactive); GI50 [55]: > 100 µM (inactive)
